Where two headings read alike, the source gives them in different places.
Tests used:
[1] = system: skin; conditions: cited from earlier work; for Skin tox.: clinical skin toxicity (rash, pruritus, acne, dermatitis, alopecia, dry skin) in labels or publications; for clinical toxicity: clinical skin toxicity
[2] = system: reconstructed human epidermis (RHE) samples; experiment: 3D in vitro reconstructed human epidermis (RHE) model, viable epidermal thickness measured with the machine-learning model after 4-day treatment
Description: A decrease in epidermal thickness of the skin may be a toxicity indication for skin toxicities as well as for cutaneous disease. For example, one can calculate a percentage by dividing the epidermal thickness of the skin after the treatment by a drug compound by the epidermal thickness before the treatment. If the percentage is smaller than 10%, it may indicate very severe toxicity; if the percentage is between 10% and 50%, it may indicate severe toxicity; if the percentage is between 50% and […], it may indicate mild toxicity; and if the percentage is larger than 90%, it may indicate rare or no toxicity. There are few preclinical methods for evaluating in vivo skin toxicity prior to clinical trial. The last two decades have seen the advent of in vitro human skin models, which have a proven record of accurately predicting clinical skin toxicity. FIG. 3A illustrates an example reconstructed human epidermis (RHE) model 300. These reconstituted human epidermal (RHE) models 300 may be metabolically and mitotically active 3D models of the normal human epidermis derived from cultured human epidermal keratinocytes. The RHE models 300 may have in vivo-like morphology and growth characteristics. […] The RHE models 300 may have keratinocytes only but no dermis, vasculature or immune/inflammatory cells.
FIG. 5A illustrates an example annotation of an RHE sample 310 with tissue sections. […] After the epidermal area is identified, the thickness of the viable epidermal area may be computed, e.g., based on distance transformation. In particular embodiments, the median thickness value may be used to represent the thickness of the viable epidermal area for each tissue section and the average thickness of the two tissue sections of a RHE sample 310 may be used to represent a single RHE sample 310. FIG. 5B illustrates an example extraction of thickness of a tissue sample. […] The digital pathology image processing system 110 may then quantify, based on the centerline, a thickness value for each of the plurality of locations. […] This way, the thickness of each tissue sample (e.g., RHE sample 310) may be normalized. FIG. 5C illustrates an example normalization of the tissue thickness. […] The left subfigure of FIG. 5C may show the originally measured thickness whereas the right subfigure of FIG. 5C may show the normalized thickness. Although this disclosure describes calculating normalized thickness in a particular manner, this disclosure contemplates calculating normalized thickness in any suitable manner. As an example and not by way of limitation, the digital pathology image processing system may determine a plurality of stepwise thickness measurements along an axis determined based on the epidermal layer, calculate a length and area of the epidermal layer with the thickness being derived from them, and then calculate the normalized thickness accordingly.
The embodiments disclosed herein further conduct a retrospective study based on RHE samples 310 from five studies that evaluated the skin toxicity of various compounds. The 3D in vitro human skin model was used for all studies. A total of 31 compounds with known or suspected clinical skin toxicity were evaluated for skin toxicity, some of which were evaluated in more than one study. Upon receipt of the RHE samples 310, each tissue culture insert was transferred to a well of 6-well plate containing 1 mL/well of pre-warmed maintenance media and kept dry on top to maintain an air-liquid interface. The RHE samples 310 were equilibrated at 37° C., 5% CO2 overnight, and fed with fresh media the next day. One day later, the RHE samples 310 were subjected to 4-day daily basolateral treatment with test articles at various concentrations, or vehicle control DMSO at 0.5%.

[3] = cited from earlier work
[4] = clinical exposure, maximal free concentrations measured in plasma
[5] = mean, normalized to control, test concentration 2 uM
[6] = mean, normalized to control, test concentration 10 uM
[7] = marked *: plasma protein binding unavailable, total concentration used

Row | SMILES | Skin tox. [1] | clinical toxicity [1] | change in epidermal thickness versus control (FIG. 11A) [2] | Normalized thickness ([2]; human, 4 days, 1 uM) | Normalized thickness ([2]; human, 4 days, 10 uM) | Cmax_free [3, 4] | also measured
1 | CN(C)C/C=C/C(=O)Nc1cc2c(Nc3ccc(F)c(Cl)c3)ncnc2cc1O[C@H]1CCOC1 [Afatinib] | Yes | demonstrated clinical toxicity | significant decrease in epidermal thickness | 0.70 | 0.77 | 0.0042 µM | –
2 | Cc1nc(NC(=O)N2CCC[C@H]2C(N)=O)sc1-c1ccnc(C(C)(C)C(F)(F)F)c1 [Alpelisib] | Yes | demonstrated clinical toxicity | significant decrease in epidermal thickness | – | – | 0.61 µM | Normalized thickness ([2]; human, 4 days, 0.32 uM): 0.75; Normalized thickness ([2]; human, 4 days, 3.2 uM): 0.45
3 | O=C(c1ccc(F)c(F)c1Nc1ccc(I)cc1F)N1CC(O)([C@@H]2CCCCN2)C1 [Cobimetinib] | Yes | demonstrated clinical toxicity | significant decrease in epidermal thickness | 0.71 | – | 0.03 µM | Normalized thickness ([2]; human, 4 days, 0.02 uM): 0.91
4 | C#Cc1cccc(Nc2ncnc3cc(OCCOC)c(OCCOC)cc23)c1 [Erlotinib] | Yes | demonstrated clinical toxicity | significant decrease in epidermal thickness | 0.53 | 0.41 | 0.38 µM | Normalized thickness ([2]; human, 4 days, 2 uM): 0.75
5 | CC[C@H](Nc1ncnc2[nH]cnc12)c1nc2cccc(F)c2c(=O)n1-c1ccccc1 [Idelalisib] | Yes | – | – | – | – | 0.84 µM | Normalized thickness ([2]; human, 4 days, 0.08 uM): 0.95; Normalized thickness ([2]; human, 4 days, 0.8 uM): 1.00
6 | Cn1cc(-c2ccc3nnc(C(F)(F)c4ccc5ncccc5c4)n3n2)cn1 [Jnj-38877605] | No | – | – | – | – | – | Normalized thickness [2, 5]: 0.82; Normalized thickness [2, 6]: 0.91; Cmax_free [3, 7]: 0.13* uM
7 | CS(=O)(=O)CCNCc1ccc(-c2ccc3ncnc(Nc4ccc(OCc5cccc(F)c5)c(Cl)c4)c3c2)o1 [Lapatinib] | Yes | demonstrated clinical toxicity | significant decrease in epidermal thickness | 0.66 | 0.47 | 0.000039 µM | –
8 | C=CC(=O)Nc1cc(Nc2nccc(-c3cn(C)c4ccccc34)n2)c(OC)cc1N(C)CCN(C)C [Osimertinib] | Yes | demonstrated clinical toxicity | significant decrease in epidermal thickness | 0.61 | 0.76 | 0.025 µM | Normalized thickness ([2]; human, 4 days, 0.3 uM): 0.85; median normalized thickness ([2]; human, 4 days, 300 nM): 0.80; Normalized thickness ([2]; human, 4 days, 3 uM): 0.45
9 | CC(=O)c1c(C)c2cnc(Nc3ccc(N4CCNCC4)cn3)nc2n(C2CCCC2)c1=O [Palbociclib] | Yes | – | – | – | – | – | Normalized thickness ([2]; human, 4 days, 0.023 uM): 1.02; Normalized thickness ([2]; human, 4 days, 0.23 uM): 0.99
10 | OCCn1cc(-c2cnc3nnn(Cc4ccc5ncccc5c4)c3n2)cn1 [Pf-04217903] | No | did not exhibit clinical toxicity | – | – | – | 0.015 µM | normalized epidermal thickness decrease ([2]; 10 µM): greater than 20%; Normalized thickness [2, 5]: 0.91; Normalized thickness [2, 6]: 0.72; change in epidermal thickness versus control (FIG. 11A) ([2]; normalized viable epidermal thickness, multiple comparison, result in words): significant decrease in epidermal thickness
11 | CS(=O)(=O)N1CCN(Cc2cc3nc(-c4cccc5[nH]ncc45)nc(N4CCOCC4)c3s2)CC1 [Pictilisib] | – | – | significant decrease in epidermal thickness | 0.46 | – | – | Normalized thickness ([2]; human, 4 days, 0.02 uM): 0.94
12 | C=CC(=O)N1CCC(Oc2cc3c(Nc4ccc(Cl)c(Cl)c4F)ncnc3cc2OC)CC1 [Poziotinib] | Yes | demonstrated clinical toxicity | significant decrease in epidermal thickness | 0.65 | 0.73 | 0.0021 µM | Normalized thickness ([2]; human, 4 days, 0.3 uM): 0.72
13 | N#CC[C@H](C1CCCC1)n1cc(-c2ncnc3[nH]ccc23)cn1 [Ruxolitinib] | No | did not exhibit clinical toxicity | significant decrease in epidermal thickness | – | 0.81 | 0.033 µM | Normalized thickness ([2]; human, 4 days, 2 uM): 0.85
14 | CNC(=O)c1cc(Oc2ccc(NC(=O)Nc3ccc(Cl)c(C(F)(F)F)c3)cc2)ccn1 [Sorafenib] | Yes | – | failed to cause any meaningful change in epidermal thickness | – | – | 0.07 µM | Normalized thickness ([2]; human, 4 days, 0.5 uM): 0.87; Normalized thickness ([2]; human, 4 days, 5 uM): 0.85
15 | C[C@@H]1CCN(C(=O)CC#N)C[C@@H]1N(C)c1ncnc2[nH]ccc12 [Tofacitinib] | No | did not exhibit clinical toxicity | significant decrease in epidermal thickness | – | 0.82 | – | Normalized thickness ([2]; human, 4 days, 2 uM): 0.84
16 | COC(=O)Nc1nc2cc(C3(O)c4ccccc4C(=O)N3c3cc(Cl)ccc3C)ccc2[nH]1 (centres unmarked) [XL281] | No | – | increase in epidermal thickness | – | – | – | Normalized thickness ([2]; human, 4 days, 0.5 uM): 1.14; Normalized thickness ([2]; human, 4 days, 5 uM): 0.89; Cmax_free [3, 7]: 4.5* uM

Reference: US20230162361A1, “ASSESSMENT OF SKIN TOXICITY IN AN IN VITRO TISSUE SAMPLES USING DEEP LEARNING” (Genentech, Inc., priority 2020, published 2023)
